Laboratory results as given in patent publication US20220056019A1, “FARNESOID X RECEPTOR AGONISTS AND USES THEREOF” (Metacrine, Inc., priority 2018, published 2022).

Biological target: T1, hFXR (Homo sapiens, UniProt Q96RI1)
T1 construct: expressed in transfected cells; host or cells: CV-1 cells
T1 sequence (Q96RI1 1-486): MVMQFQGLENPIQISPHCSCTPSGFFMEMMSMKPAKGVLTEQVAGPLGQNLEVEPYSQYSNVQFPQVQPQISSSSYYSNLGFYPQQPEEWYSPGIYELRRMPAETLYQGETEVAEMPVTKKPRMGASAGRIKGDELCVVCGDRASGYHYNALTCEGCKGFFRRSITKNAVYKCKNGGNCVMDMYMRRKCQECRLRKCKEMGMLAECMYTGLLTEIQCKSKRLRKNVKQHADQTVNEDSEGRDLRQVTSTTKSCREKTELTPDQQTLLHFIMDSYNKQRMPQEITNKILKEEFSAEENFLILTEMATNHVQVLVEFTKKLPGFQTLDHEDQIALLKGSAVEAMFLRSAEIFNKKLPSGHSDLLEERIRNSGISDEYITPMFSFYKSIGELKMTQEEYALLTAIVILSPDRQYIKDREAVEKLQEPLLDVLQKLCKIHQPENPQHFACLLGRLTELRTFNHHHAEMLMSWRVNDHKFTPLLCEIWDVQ
T1 sequence (P19793 1-462 partner): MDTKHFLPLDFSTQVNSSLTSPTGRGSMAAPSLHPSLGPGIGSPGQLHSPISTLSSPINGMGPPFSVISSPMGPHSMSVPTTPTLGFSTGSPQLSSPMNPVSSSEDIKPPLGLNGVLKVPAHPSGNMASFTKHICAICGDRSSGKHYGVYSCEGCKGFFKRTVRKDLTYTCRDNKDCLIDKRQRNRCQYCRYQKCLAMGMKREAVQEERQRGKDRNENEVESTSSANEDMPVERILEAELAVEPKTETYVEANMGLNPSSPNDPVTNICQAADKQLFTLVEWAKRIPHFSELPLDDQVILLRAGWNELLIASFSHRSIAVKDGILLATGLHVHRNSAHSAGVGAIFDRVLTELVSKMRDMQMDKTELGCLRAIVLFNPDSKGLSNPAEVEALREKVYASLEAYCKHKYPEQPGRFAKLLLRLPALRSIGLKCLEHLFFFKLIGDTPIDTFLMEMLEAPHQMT
Assay: In Vitro FXR Assay (TK): TK-ECRE-luc reporter in transfected CV-1 cells
Assay type: cell-based
Settings: 18 hrs incubation, luminescence
How it was run: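 Transactivation is scored as luminescence in CV-1 cell lysates. The cells, co-transfected with hFXR/hRXR and a TK-ECRE-luc reporter, are exposed to DMSO-diluted compounds for 18 h.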

COc1ncc([C@H]2CC[C@H](CN(c3cc(-c4coc(C5CC5)n4)ccn3)C(=O)[C@H]3CC[C@H](OC(=O)N4CCN(C)CC4)CC3)CC2)cc1Cl [Compound 1.07, trans-4-((((trans)-4-(5-Chloro-6-methoxypyridin-3-yl)cyclohexyl)methyl)(4-(2-cyclopropyloxazol-4-yl)pyridin-2-yl)carbamoyl)cyclohexyl 4-methylpiperazine-1-carboxylate]
EC50: ≤ 50 nM

COc1ccc([C@H]2CC[C@H](CN(c3cc(-c4cnn(C(C)C)c4)ccn3)C(=O)[C@H]3CC[C@H](OCCCO)CC3)CC2)cc1C [Compound 16.01, trans-4-(3-Hydroxypropoxy)-N-(4-(1-isopropyl-1H-pyrazol-4-yl)pyridin-2-yl)-N-((trans-4-(4-methoxy-3-methylphenyl)cyclohexyl)methyl)cyclo-hexanecarboxamide]
EC50: ≤ 50 nM

COc1ccc(C23CCC(CN(c4cc(-c5coc(C(C)C)n5)ccn4)C(=O)[C@H]4CC[C@H](OC(=O)N5CC(OCCO)C5)CC4)(CC2)CC3)cc1C [Compound 23.05, 4-((4-(2-Isopropyloxazol-4-yl)2-yl)((4-(4-methoxy-3-methylphenyl)bicyclo[2.2.2]octan-1-yl)methyl)carbamoyl)(trans-cyclohexyl) 3-(2-hydroxyethoxy)azetidine-1-carboxylatepyridin-]
EC50: ≤ 50 nM

COc1ccc(C23CCC(CN(c4cc(-c5cnn(C(C)C)c5)cc(Cl)n4)C(=O)[C@H]4CC[C@H](OC(=O)N5CC(O)C5)CC4)(CC2)CC3)cc1C [Compound 4.40, 4-((6-Chloro-4-(1-isopropyl-1H-pyrazol-4-yl)pyridin-2-yl)((4-(4-methoxy-3-methylphenyl)bicyclo[2.2.2]octan-1-yl)methyl)carbamoyl) cyclohexyl trans-3-hydroxyazetidine-1-carboxylate]
EC50: ≤ 50 nM

COc1ccc(C23CCC(CN(c4cc(-c5cnn(C(C)C)c5)ccn4)C(=O)[C@H]4CC[C@H](OC(=O)N5CC(OC(C)C)C5)CC4)(CC2)CC3)cc1C [Compound 23.11, 4-((4-(1-Isopropyl-1H-pyrazol-4-yl)pyridin-2-yl)((4-(4-methoxy-3-methylphenyl)bicyclo[2.2.2]octan-1-yl)methyl)carbamoyl)(trans-cyclohexyl) 3-isopropoxy-azetidine-1-carboxylate]
EC50: ≤ 50 nM

COc1ccc([C@H]2CC[C@H](CN(c3cccc(-c4cnn(C(C)C)c4)c3)C(=O)[C@H]3CC[C@H](NC(=O)COCCO)CC3)CC2)cc1C [Compound 13.01, trans-4-(2-(2-Hydroxyethoxy)acetamido)-N-(3-(1-isopropyl-1H-pyrazol-4-yl)phenyl)-N-((trans-4-(4-methoxy-3-methylphenyl)cyclohexyl)meth-yl)cyclohexanecarboxamide]
EC50: 50 to 1000 nM

COc1ccc(C23CCC(CN(c4cc(-c5cnc(C(C)C)o5)ccn4)C(=O)[C@H]4CC[C@H](OC(=O)N5CC(O)C5)CC4)(CC2)CC3)cc1C [Compound 4.25, 4-((4-(2-Isopropyloxazol-5-yl)pyridin-2-yl)((4-(4-methoxy-3-methylphenyl)bicyclo[2.2.2]octan-1-yl)methyl)carbamoyl) cyclohexyl 3-hydroxyazetidine-trans-1-carboxylate]
EC50: ≤ 50 nM

CCc1nc(-c2ccnc(N(C[C@H]3CC[C@H](c4ccc(OC)c(C)c4)CC3)C(=O)[C@H]3CC[C@H](OC(=O)N4CCN(C)CC4)CC3)c2)co1 [Compound 2.48, trans-4-((4-(2-Ethyloxazol-4-yl)pyridin-2-yl)((trans-4-(4-methoxy-3-methylphenyl)cyclohexyl)methyl)carbamoyl)cyclohexyl 4-methylpiperazine-1-carboxylate]
EC50: 50 to 1000 nM

COc1ccc(C23CCC(CN(c4cc(-c5cnn(C6CCC6)c5)ccn4)C(=O)[C@H]4CC[C@H](OC(=O)N5CC(CO)C5)CC4)(CC2)CC3)cc1C [Compound 23.10, 4-((4-(1-Cyclobutyl-1H-pyrazol-4-yl)pyridin-2-yl)((4-(4-methoxy-3-methylphenyl)bicyclo[2.2.2]octan-1-yl)methyl)carbamoyl)(trans-cyclohexyl) 3-(hydroxymethyl)azetidine-1-carboxylate]
EC50: ≤ 50 nM

COc1ccc(C23CCC(CN(c4cc(-c5cnn(C6CCC6)c5)ncn4)C(=O)[C@H]4CC[C@H](OC(=O)N5CC(CO)C5)CC4)(CC2)CC3)cc1C [Compound 23.24]
EC50: ≤ 50 nM

COc1ccc(C23CCC(CN(c4cc(-c5nnn(C(C)C)n5)ccn4)C(=O)[C@H]4CC[C@H](OC(=O)N5CC(O)C5)CC4)(CC2)CC3)cc1C [Compound 26.16, 4-((4-(2-Isopropyl-2H-tetrazol-5-yl)pyridin-2-yl)((4-(4-methoxy-3-methylphenyl)bicyclo[2.2.2]octan-1-yl)methyl)carbamoyl)cyclohexyl trans-3-hydroxyazetidine-1-carboxylate]
EC50: ≤ 50 nM

COc1ccc([C@H]2CC[C@H](CN(c3cccc(-c4cnn(C(C)C)c4)c3)C(=O)[C@H]3CC[C@H](CCO)CC3)CC2)cc1C [Compound 15, trans-4-(2-Hydroxyethyl)-N-(3-(1-isopropyl-1H-pyrazol-4-yl)phenyl)-N-((trans-4-(4-methoxy-3-methylphenyl)cyclohexyl)methyl)cy-clohexanecarboxamide]
EC50: ≤ 50 nM

COc1ccc([C@H]2CC[C@H](CN(c3cc(-c4cnn(C(C)C)c4)ccn3)C(=O)[C@H]3CC[C@H](OC(=O)NCCCF)CC3)CC2)cc1C [Compound 2.29, trans-4-((4-(1-Isopropyl-1H-pyrazol-4-yl)pyridin-2-yl)(((trans)-4-(4-methoxy-3-methylphenyl)cyclohexyl)methyl)carbamoyl) cyclohexyl(3-fluoropropyl)carbamate]
EC50: ≤ 50 nM

COc1ccc(C23CCC(CN(c4cc(-c5cnc(C6CC6)s5)ccn4)C(=O)[C@H]4CC[C@H](NC(C)=O)CC4)(CC2)CC3)cc1C [Compound 9.06, (trans)-4-Acetamido-N-(4-(2-cyclopropylthiazol-5-yl)pyridin-2-yl)-N-((4-(4-methoxy-3-methylphenyl)bicyclo[2.2.2]octan-1-yl)methyl)cyclohexanecarboxamide]
EC50: ≤ 50 nM

COc1ccc(C23CCC(CN(c4cc(-c5cnn(C(C)C)c5)ccn4)C(=O)[C@H]4CC[C@H](OC(=O)N5CC(C)C5)CC4)(CC2)CC3)cc1C [Compound 4.53, 4-((4-(1-Isopropyl-1H-pyrazol-4-yl)pyridin-2-yl) ((4-(4-methoxy-3-methylphenyl)bicyclo [2.2.2]octan-1-yl)methyl)carbamoyl)cyclohexyl trans-3-methylazetidine-1-carboxylate]
EC50: ≤ 50 nM

COc1ccc([C@H]2CC[C@H](CN(c3cccc(-c4cnn(C(C)C)c4)c3)C(=O)[C@H]3CC[C@H](NC(=O)C4CCOCC4)CC3)CC2)cc1C [Compound 10.02, N-(trans-4-((3-(1-Isopropyl-1H-pyrazol-4-yl)phenyl)((trans-4-(4-methoxy-3-methylphenyl)cyclohexyl)methyl)carbamoyl)cyclohexyl)tetrahydro-2H-pyran-4-carboxamide]
EC50: ≤ 50 nM

COc1ccc(C23CCC(CN(c4cc(-c5cnn(C6CCC6)c5)ncn4)C(=O)[C@H]4CC[C@H](OC(=O)N5CC(O)C5)CC4)(CC2)CC3)cc1C [Compound 23.23, 4-((6-(1-Cyclobutyl-1H-pyrazol-4-yl)pyrimidin-4-yl)((4-(4-methoxy-3-methylphenyl)bicyclo[2.2.2]octan-1-yl)methyl)carbamoyl)(trans-cyclohexyl) 3-hydroxyazetidine-1-carboxylate]
EC50: ≤ 50 nM

COc1ccc([C@H]2CC[C@H](CN(c3cc(-c4cnn(C(C)C)c4)ccn3)C(=O)[C@H]3CC[C@H](OC(=O)NC[C@@H](F)CO)CC3)CC2)cc1C [Compound 2.41, trans-4-((4-(1-Isopropyl-1H-pyrazol-4-yl)pyridin-2-yl) (((trans)-4-(4-methoxy-3-methylphenyl)cyclohexyl)methyl)carbamoyl) cyclohexyl((R)-2-fluoro-3-hydroxypropyl)carbamate]
EC50: ≤ 50 nM

COc1c(C)cc(C23CCC(CN(c4cc(-c5cnn(C(C)C)c5)ccn4)C(=O)[C@H]4CC[C@H](OC(=O)N5CC(O)C5)CC4)(CC2)CC3)cc1C [Compound 26.07, 4-((4-(1-Isopropyl-1H-pyrazol-4-yl)pyridin-2-yl)((4-(4-methoxy-3,5-dimethylphenyl)bicyclo[2.2.2]octan-1-yl)methyl)carbamoyl)cyclohexyl trans-3-hydroxyazetidine-1-carboxylate]
EC50: ≤ 50 nM

COc1ccc(C23CCC(CN(c4cncc(-c5cnn(C(C)C)c5)c4)C(=O)[C@H]4CC[C@H](OC(=O)N5CC(O)C5)CC4)(CC2)CC3)cc1C [Compound 25, 4-((5-(1-Isopropyl-1H-pyrazol-4-yl)pyridin-3-yl)((4-(4-methoxy-3-methylphenyl)bicyclo[2.2.2]octan-1-yl)methyl)carbamoyl)cyclohexyl trans-3-hydroxyazetidine-1-carboxylate]
EC50: ≤ 50 nM
